# Results taken from PubChem BioAssay (NCI).
#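 Exposure lasted 48 hours, with cells grown in 96-well plates and compounds tested at five concentrations. Definition used: TGI = concentration required for complete inhibition of growth.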
# Columns and labels:
# Test in all cases: NCI-60 cell line screen, 48 h
# 786-0 renal = tested on: 786-0 renal
# A498 renal = tested on: A498 renal
# A549 NSCLC = tested on: A549 NSCLC
# ACHN renal = tested on: ACHN renal
# BT-549 breast = tested on: BT-549 breast
# CAKI-1 renal = tested on: CAKI-1 renal
# CCRF-CEM leukemia = tested on: CCRF-CEM leukemia
# COLO 205 colon = tested on: COLO 205 colon
# DU-145 prostate = tested on: DU-145 prostate
# EKVX NSCLC = tested on: EKVX NSCLC
# HCC-2998 colon = tested on: HCC-2998 colon
# HCT-116 colon = tested on: HCT-116 colon
# HCT-15 colon = tested on: HCT-15 colon
# HL-60(TB) leukemia = tested on: HL-60(TB) leukemia
# HOP-62 NSCLC = tested on: HOP-62 NSCLC
# HOP-92 NSCLC = tested on: HOP-92 NSCLC
# HS 578T breast = tested on: HS 578T breast
# HT29 colon = tested on: HT29 colon
# IGROV1 ovarian = tested on: IGROV1 ovarian
# K-562 leukemia = tested on: K-562 leukemia
# KM12 colon = tested on: KM12 colon
# LOX IMVI melanoma = tested on: LOX IMVI melanoma
# M14 melanoma = tested on: M14 melanoma
# MALME-3M melanoma = tested on: MALME-3M melanoma
# MCF7 breast = tested on: MCF7 breast
# MDA-MB-231 breast = tested on: MDA-MB-231 breast
# MDA-MB-435 = tested on: MDA-MB-435
# MDA-N = tested on: MDA-N
# MOLT-4 leukemia = tested on: MOLT-4 leukemia
# NCI-H226 lung = tested on: NCI-H226 lung
# NCI-H23 lung = tested on: NCI-H23 lung
# NCI-H460 lung = tested on: NCI-H460 lung
# NCI-H522 lung = tested on: NCI-H522 lung
# NCI/ADR-RES ovarian = tested on: NCI/ADR-RES ovarian
# OVCAR-3 ovarian = tested on: OVCAR-3 ovarian
# OVCAR-4 ovarian = tested on: OVCAR-4 ovarian
# OVCAR-5 ovarian = tested on: OVCAR-5 ovarian
# OVCAR-8 ovarian = tested on: OVCAR-8 ovarian
# PC-3 prostate = tested on: PC-3 prostate
# RPMI-8226 leukemia = tested on: RPMI-8226 leukemia
# RXF 393 renal = tested on: RXF 393 renal
# SF-268 CNS = tested on: SF-268 CNS
# SF-295 CNS = tested on: SF-295 CNS
# SF-539 CNS = tested on: SF-539 CNS
# SK-MEL-2 melanoma = tested on: SK-MEL-2 melanoma
# SK-MEL-28 melanoma = tested on: SK-MEL-28 melanoma
# SK-MEL-5 melanoma = tested on: SK-MEL-5 melanoma
# SK-OV-3 ovarian = tested on: SK-OV-3 ovarian
# SN12C renal = tested on: SN12C renal
# SNB-19 CNS = tested on: SNB-19 CNS
# SNB-75 CNS = tested on: SNB-75 CNS
# SR leukemia = tested on: SR leukemia
# SW-620 colon = tested on: SW-620 colon
# T-47D breast = tested on: T-47D breast
# TK-10 renal = tested on: TK-10 renal
# U251 CNS = tested on: U251 CNS
# UACC-257 melanoma = tested on: UACC-257 melanoma
# UACC-62 melanoma = tested on: UACC-62 melanoma
# UO-31 renal = tested on: UO-31 renal
smiles,measurement,setting,value
Cn1cnc([N+](=O)[O-])c1Sc1nc(N)nc2c1ncn2C1CC(O)C(CO)O1 (configuration not stated),TGI,786-0 renal,> 100 µM
same,TGI,A498 renal,71.2 µM
same,TGI,A549 NSCLC,> 100 µM
same,TGI,ACHN renal,> 92.8 µM
same,TGI,BT-549 breast,> 100 µM
same,TGI,CAKI-1 renal,> 100 µM
same,TGI,CCRF-CEM leukemia,> 100 µM
same,TGI,COLO 205 colon,> 34.3 µM
same,TGI,DU-145 prostate,> 50.8 µM
same,TGI,EKVX NSCLC,> 100 µM
same,TGI,HCC-2998 colon,> 100 µM
same,TGI,HCT-116 colon,> 100 µM
same,TGI,HCT-15 colon,> 100 µM
same,TGI,HL-60(TB) leukemia,> 47.1 µM
same,TGI,HOP-62 NSCLC,> 100 µM
same,TGI,HOP-92 NSCLC,> 100 µM
same,TGI,HS 578T breast,> 100 µM
same,TGI,HT29 colon,> 100 µM
same,TGI,IGROV1 ovarian,> 100 µM
same,TGI,K-562 leukemia,> 100 µM
same,TGI,KM12 colon,12.1 µM
same,TGI,LOX IMVI melanoma,> 100 µM
same,TGI,M14 melanoma,> 58.6 µM
same,TGI,MALME-3M melanoma,> 100 µM
same,TGI,MCF7 breast,> 54.2 µM
same,TGI,MDA-MB-231 breast,> 100 µM
same,TGI,MDA-MB-435,> 58.8 µM
same,TGI,MDA-N,> 100 µM
same,TGI,MOLT-4 leukemia,16.4 µM
same,TGI,NCI-H226 lung,98.2 µM
same,TGI,NCI-H23 lung,> 55 µM
same,TGI,NCI-H460 lung,> 40 µM
same,TGI,NCI-H522 lung,14.4 µM
same,TGI,NCI/ADR-RES ovarian,> 100 µM
same,TGI,OVCAR-3 ovarian,> 36.4 µM
same,TGI,OVCAR-4 ovarian,> 83.1 µM
same,TGI,OVCAR-5 ovarian,> 100 µM
same,TGI,OVCAR-8 ovarian,> 100 µM
same,TGI,PC-3 prostate,> 100 µM
same,TGI,RPMI-8226 leukemia,36.2 µM
same,TGI,RXF 393 renal,> 100 µM
same,TGI,SF-268 CNS,> 100 µM
same,TGI,SF-295 CNS,> 100 µM
same,TGI,SF-539 CNS,> 100 µM
same,TGI,SK-MEL-2 melanoma,25.7 µM
same,TGI,SK-MEL-28 melanoma,> 100 µM
same,TGI,SK-MEL-5 melanoma,22.9 µM
same,TGI,SK-OV-3 ovarian,> 79.1 µM
same,TGI,SN12C renal,> 100 µM
same,TGI,SNB-19 CNS,> 100 µM
same,TGI,SNB-75 CNS,37.7 µM
same,TGI,SR leukemia,18.7 µM
same,TGI,SW-620 colon,> 100 µM
same,TGI,T-47D breast,> 63.9 µM
same,TGI,TK-10 renal,> 100 µM
same,TGI,U251 CNS,> 100 µM
same,TGI,UACC-257 melanoma,> 100 µM
same,TGI,UACC-62 melanoma,> 20.8 µM
same,TGI,UO-31 renal,44.9 µM
COc1c2ccoc2c(OC)c2oc(=O)ccc12,TGI,786-0 renal,> 100 µM
same,TGI,A498 renal,> 100 µM
same,TGI,A549 NSCLC,> 100 µM
same,TGI,ACHN renal,> 100 µM
same,TGI,BT-549 breast,> 100 µM
same,TGI,CAKI-1 renal,> 100 µM
same,TGI,CCRF-CEM leukemia,> 100 µM
same,TGI,COLO 205 colon,> 100 µM
same,TGI,DU-145 prostate,> 100 µM
same,TGI,EKVX NSCLC,> 100 µM
same,TGI,HCC-2998 colon,> 100 µM
same,TGI,HCT-116 colon,> 100 µM
same,TGI,HCT-15 colon,> 100 µM
same,TGI,HL-60(TB) leukemia,> 100 µM
same,TGI,HOP-62 NSCLC,> 100 µM
same,TGI,HS 578T breast,> 100 µM
same,TGI,HT29 colon,> 100 µM
same,TGI,IGROV1 ovarian,> 100 µM
same,TGI,K-562 leukemia,> 100 µM
same,TGI,KM12 colon,> 100 µM
same,TGI,LOX IMVI melanoma,> 100 µM
same,TGI,M14 melanoma,> 100 µM
same,TGI,MCF7 breast,> 100 µM
same,TGI,MDA-MB-231 breast,> 100 µM
same,TGI,MDA-MB-435,> 100 µM
same,TGI,MDA-N,> 100 µM
same,TGI,MOLT-4 leukemia,> 100 µM
same,TGI,NCI-H226 lung,> 100 µM
same,TGI,NCI-H23 lung,> 100 µM
same,TGI,NCI-H460 lung,> 100 µM
same,TGI,NCI-H522 lung,> 100 µM
same,TGI,NCI/ADR-RES ovarian,> 100 µM
same,TGI,OVCAR-3 ovarian,> 100 µM
same,TGI,OVCAR-4 ovarian,> 100 µM
same,TGI,OVCAR-5 ovarian,> 100 µM
same,TGI,OVCAR-8 ovarian,> 100 µM
same,TGI,PC-3 prostate,> 100 µM
same,TGI,RPMI-8226 leukemia,> 100 µM
same,TGI,RXF 393 renal,> 100 µM
same,TGI,SF-268 CNS,> 100 µM
same,TGI,SF-295 CNS,> 100 µM
same,TGI,SF-539 CNS,> 100 µM
same,TGI,SK-MEL-28 melanoma,> 100 µM
same,TGI,SK-MEL-5 melanoma,> 100 µM
same,TGI,SN12C renal,> 100 µM
same,TGI,SNB-19 CNS,> 100 µM
same,TGI,SNB-75 CNS,63.6 µM
same,TGI,SR leukemia,> 100 µM
same,TGI,SW-620 colon,> 100 µM
same,TGI,T-47D breast,> 100 µM
same,TGI,TK-10 renal,> 100 µM
same,TGI,U251 CNS,> 100 µM
same,TGI,UACC-257 melanoma,> 100 µM
same,TGI,UACC-62 melanoma,> 100 µM
same,TGI,UO-31 renal,> 100 µM
CC(C)=CCC/C(C)=C/CC/C(C)=C/CC/C(C)=C/CC/C(C)=C/CC/C(C)=C/CC/C(C)=C/CC/C(C)=C/CC/C(C)=C/CO,TGI,786-0 renal,> 100 µM
same,TGI,A498 renal,> 100 µM
same,TGI,A549 NSCLC,> 100 µM
same,TGI,ACHN renal,> 100 µM
same,TGI,BT-549 breast,> 100 µM
same,TGI,CAKI-1 renal,> 100 µM
same,TGI,CCRF-CEM leukemia,> 100 µM
same,TGI,COLO 205 colon,> 100 µM
same,TGI,DU-145 prostate,> 100 µM
same,TGI,EKVX NSCLC,> 100 µM
same,TGI,HCC-2998 colon,> 100 µM
same,TGI,HCT-116 colon,> 100 µM
same,TGI,HCT-15 colon,> 100 µM
same,TGI,HL-60(TB) leukemia,> 100 µM
same,TGI,HOP-62 NSCLC,> 100 µM
same,TGI,HOP-92 NSCLC,> 100 µM
same,TGI,HS 578T breast,> 100 µM
same,TGI,HT29 colon,> 100 µM
same,TGI,IGROV1 ovarian,> 100 µM
same,TGI,K-562 leukemia,> 100 µM
same,TGI,KM12 colon,> 100 µM
same,TGI,LOX IMVI melanoma,> 100 µM
same,TGI,M14 melanoma,> 100 µM
same,TGI,MALME-3M melanoma,> 100 µM
same,TGI,MCF7 breast,> 100 µM
same,TGI,MDA-MB-231 breast,> 100 µM
same,TGI,MDA-MB-435,> 100 µM
same,TGI,MDA-N,> 100 µM
same,TGI,MOLT-4 leukemia,> 100 µM
same,TGI,NCI-H226 lung,> 100 µM
same,TGI,NCI-H23 lung,> 100 µM
same,TGI,NCI-H460 lung,> 100 µM
same,TGI,NCI-H522 lung,> 100 µM
same,TGI,OVCAR-3 ovarian,> 100 µM
same,TGI,OVCAR-4 ovarian,> 100 µM
same,TGI,OVCAR-5 ovarian,> 100 µM
same,TGI,OVCAR-8 ovarian,> 100 µM
same,TGI,PC-3 prostate,> 100 µM
same,TGI,RPMI-8226 leukemia,> 100 µM
same,TGI,RXF 393 renal,> 100 µM
same,TGI,SF-268 CNS,> 100 µM
same,TGI,SF-295 CNS,> 100 µM
same,TGI,SF-539 CNS,> 100 µM
same,TGI,SK-MEL-2 melanoma,> 100 µM
same,TGI,SK-MEL-28 melanoma,> 100 µM
same,TGI,SK-MEL-5 melanoma,> 100 µM
same,TGI,SK-OV-3 ovarian,> 100 µM
same,TGI,SN12C renal,> 100 µM
same,TGI,SNB-19 CNS,> 100 µM
same,TGI,SNB-75 CNS,> 100 µM
same,TGI,SR leukemia,> 100 µM
same,TGI,SW-620 colon,> 100 µM
same,TGI,T-47D breast,> 100 µM
same,TGI,TK-10 renal,> 100 µM
same,TGI,U251 CNS,> 100 µM
same,TGI,UACC-257 melanoma,> 100 µM
same,TGI,UACC-62 melanoma,> 100 µM
same,TGI,UO-31 renal,> 100 µM
